The target of this assay is Human PDE9 (PDE9A2) (Homo sapiens (Human), UniProt O76083). The assay is described as follows: PDE9 IMAP fluorescence polarization assay. The assay is classed as biochemical. The settings on record: human PDE9A2, FAM-cGMP substrate 50 nM, IMAP FP, apparent inhibition constant. As for the experimental part:
The activity of the compounds in accordance with the present invention as PDE9 inhibitors may be readily determined without undue experimentation using a fluorescence polarization (FP) methodology that is well known in the art (Huang, W., et al., J. Biomol Screen. 2002, 7: 215).
In a typical experiment the PDE9 inhibitory activity of the compounds of the present invention was determined in accordance with the following experimental method.
Human PDE9 (PDE9A2, GenBank Accession No. NM_001001567), full length with N-terminal GST tag, was purchased from BPS Bioscience. The fluorescence polarization assay for cyclic nucleotide phosphodiesterases was performed using an IMAP® FP kit supplied by Molecular Devices, Sunnyvale, CA (product #R8139). IMAP® technology has been applied previously to phosphodiesterase assays (Huang, W., et al., J. Biomol Screen. 2002, 7: 215).
Fluorescence polarization (mP) was calculated from the parallel (S) and perpendicular (P) fluorescence of each sample well and the analogous values for the median control well, containing only substrate (So and Po), using the following equation: Polarization (mP)=1000*(S/So−P/Po)/(S/So+P/Po).
Dose-inhibition profiles for each compound were characterized by fitting the mP data to a four-parameter equation given below. The apparent inhibition constant (KI), the maximum inhibition at the low plateau relative to “100% Inhibition Control” (Imax; e.g. 1=>same as this control), the minimum inhibition at the high plateau relative to the “0% Inhibition Control” (Imin, e.g. 0=>same as the no drug control) and the Hill slope (nH) are determined by a non-linear least squares fitting of the mP values as a function of dose of the compound using an in-house software based on the procedures described by Mosser et al., JALA. 2003, 8: 54-63, using the following equation: […]
(Fluorescence polarisation rises when a labelled molecule tumbles more slowly, as on binding a larger partner.)
Take `Cc1nnc(C2CCC2c2nc3c(c(C#N)nn3C(C)c3ccc(C(F)(F)F)nc3)c(=O)[nH]2)o1` (single isomer, unassigned) [Example 1, 6-(2-(5-methyl-1,3,4-oxadiazol-2-yl)cyclobutyl)-4-oxo-1-(1-(6-(trifluoromethyl)pyridin-3-yl)ethyl)-4,5-dihydro-1H-pyrazolo[3,4-d]pyrimidine-3-carbonitrile]: the Ki is 28.9 nM.
On to `Cc1nnc(C2CCC2c2nc3c(c(C#N)nn3C(C)c3ccc(C(F)(F)F)nc3)c(=O)[nH]2)o1` (single isomer, unassigned) [Example 2, 6-(2-(5-methyl-1,3,4-oxadiazol-2-yl)cyclobutyl)-4-oxo-1-(1-(6-(trifluoromethyl)pyridin-3-yl)ethyl)-4,5-dihydro-1H-pyrazolo[3,4-d]pyrimidine-3-carbonitrile], for which the Ki came out at 118 nM.
For the molecule `Cc1nnc(C2CCC2c2nc3c(c(C#N)nn3C(C)c3ccc(C(F)(F)F)nc3)c(=O)[nH]2)o1` (single isomer, unassigned) [Example 3, 6-(2-(5-methyl-1,3,4-oxadiazol-2-yl)cyclobutyl)-4-oxo-1-(1-(6-(trifluoromethyl)pyridin-3-yl)ethyl)-4,5-dihydro-1H-pyrazolo[3,4-d]pyrimidine-3-carbonitrile], the Ki worked out at 221 nM.
In the case of `Cc1nnc(C2CCC2c2nc3c(c(C#N)nn3C(C)c3ccc(C(F)(F)F)nc3)c(=O)[nH]2)o1` (single isomer, unassigned) [Example 4, 6-(2-(5-methyl-1,3,4-oxadiazol-2-yl)cyclobutyl)-4-oxo-1-(1-(6-(trifluoromethyl)pyridin-3-yl)ethyl)-4,5-dihydro-1H-pyrazolo[3,4-d]pyrimidine-3-carbonitrile], the Ki turned out to be 229 nM.
The result for `Cc1nnc(C2CCC2c2nc3c(c(C#N)nn3C(C)c3ccc(C(F)(F)F)nc3)c(=O)[nH]2)o1` (single isomer, unassigned) [Example 5, 6-(2-(5-methyl-1,3,4-oxadiazol-2-yl)cyclobutyl)-4-oxo-1-(1-(6-(trifluoromethyl)pyridin-3-yl)ethyl)-4,5-dihydro-1H-pyrazolo[3,4-d]pyrimidine-3-carbonitrile] reads 35 nM; that for `Cc1nnc(C2CCC2c2nc3c(c(C#N)nn3C(C)c3ccc(C(F)(F)F)nc3)c(=O)[nH]2)o1` (single isomer, unassigned) [Example 6, 6-(2-(5-methyl-1,3,4-oxadiazol-2-yl)cyclobutyl)-4-oxo-1-(1-(6-(trifluoromethyl)pyridin-3-yl)ethyl)-4,5-dihydro-1H-pyrazolo[3,4-d]pyrimidine-3-carbonitrile], 42.7 nM; that for `Cc1nnc(C2CCC2c2nc3c(c(C#N)nn3C(C)c3ccc(C(F)(F)F)nc3)c(=O)[nH]2)o1` (single isomer, unassigned) [Example 7, 6-(2-(5-methyl-1,3,4-oxadiazol-2-yl)cyclobutyl)-4-oxo-1-(1-(6-(trifluoromethyl)pyridin-3-yl)ethyl)-4,5-dihydro-1H-pyrazolo[3,4-d]pyrimidine-3-carbonitrile], 167 nM.
The result for `C[C@@H](c1ccc(C(F)(F)F)nc1)n1nc(C#N)c2c(=O)[nH]c(C3CCC3c3ccccn3)nc21` (single isomer, unassigned) [Example 8] reads 0.034 nM; that for `C[C@@H](c1ccc(C(F)(F)F)nc1)n1nc(C#N)c2c(=O)[nH]c(C3CCC3c3ccccn3)nc21` (single isomer, unassigned) [Example 9], 2.72 nM; that for `C[C@@H](c1ccc(C(F)(F)F)nc1)n1nc(C#N)c2c(=O)[nH]c(C3CCC3c3ccc(F)cn3)nc21` (single isomer, unassigned) [Example 13], 608 nM.
The result for `C[C@@H](c1ccc(C(F)(F)F)nc1)n1nc(C#N)c2c(=O)[nH]c(C3CCC3c3ccc(F)cn3)nc21` (single isomer, unassigned) [Example 14] reads 0.12 nM; that for `C[C@@H](c1ccc(C(F)(F)F)nc1)n1nc(C#N)c2c(=O)[nH]c(C3CCC3c3ncccc3F)nc21` (single isomer, unassigned) [Example 15], 14.1 nM.
For the molecule `C[C@@H](c1ccc(C(F)(F)F)nc1)n1nc(C#N)c2c(=O)[nH]c(C3CCC3c3ncccc3F)nc21` (single isomer, unassigned) [Example 16], the Ki came out at 0.461 nM.
To `C[C@@H](c1ccc(C(F)(F)F)nc1)n1nc(C#N)c2c(=O)[nH]c(C3CCC3c3ccn(C)n3)nc21` (single isomer, unassigned) [Example 17] belongs 43.2 nM.
Turning to `C[C@@H](c1ccc(C(F)(F)F)nc1)n1nc(C#N)c2c(=O)[nH]c(C3CCC3c3ccn(C)n3)nc21` (single isomer, unassigned) [Example 18], the Ki was found to be 35.9 nM.
`C[C@@H](c1ccc(C(F)(F)F)nc1)n1nc(C#N)c2c(=O)[nH]c(C3CCC3c3ccnn3C)nc21` (single isomer, unassigned) [Example 19]: the Ki turned out to be 0.145 nM.
`C[C@@H](c1ccc(C(F)(F)F)nc1)n1nc(C#N)c2c(=O)[nH]c(C3CCC3c3cncnc3)nc21` (single isomer, unassigned) [Example 20]: the Ki is 0.602 nM.
Turning to `C[C@@H](c1ccc(C(F)(F)F)nc1)n1nc(C#N)c2c(=O)[nH]c(C3CCC3c3cncnc3)nc21` (single isomer, unassigned) [Example 21], the Ki stood at 176 nM.
For `CC(c1ccc(C(F)(F)F)nc1)n1nc(C#N)c2c(=O)[nH]c(C3CCC3n3cc(C#N)cn3)nc21` (single isomer, unassigned) [Example 24, 6-(2-(4-cyano-1H-pyrazol-1-yl)cyclobutyl)-4-oxo-1-(1-(6-(trifluoromethyl)pyridin-3-yl)ethyl)-4,5-dihydro-1H-pyrazolo[3,4-d]pyrimidine-3-carbonitrile], the Ki is 22.3 nM.
On to `CC(c1ccc(C(F)(F)F)nc1)n1nc(C#N)c2c(=O)[nH]c(C3CCC3n3cc(C#N)cn3)nc21` (single isomer, unassigned) [Example 25, 6-(2-(4-cyano-1H-pyrazol-1-yl)cyclobutyl)-4-oxo-1-(1-(6-(trifluoromethyl)pyridin-3-yl)ethyl)-4,5-dihydro-1H-pyrazolo[3,4-d]pyrimidine-3-carbonitrile], for which the Ki stood at 0.35 nM.
To `CC(c1ccc(C(F)(F)F)nc1)n1nc(C#N)c2c(=O)[nH]c(C3CCC3n3ccc(C#N)n3)nc21` (single isomer, unassigned) [Example 26, 6-(2-(3-cyano-1H-pyrazol-1-yl)cyclobutyl)-4-oxo-1-(1-(6-(trifluoromethyl)pyridin-3-yl)ethyl)-4,5-dihydro-1H-pyrazolo[3,4-d]pyrimidine-3-carbonitrile] belongs 96.1 nM; to `CC(c1ccc(C(F)(F)F)nc1)n1nc(C#N)c2c(=O)[nH]c(C3CCC3n3ccc(C#N)n3)nc21` (single isomer, unassigned) [Example 27, 6-(2-(3-cyano-1H-pyrazol-1-yl)cyclobutyl)-4-oxo-1-(1-(6-(trifluoromethyl)pyridin-3-yl)ethyl)-4,5-dihydro-1H-pyrazolo[3,4-d]pyrimidine-3-carbonitrile], 1.51 nM.
For the molecule `CC(c1ccc(C(F)(F)F)nc1)n1nc(C#N)c2c(=O)[nH]c(C3CCC3n3ccc(C#N)n3)nc21` (single isomer, unassigned) [Example 28, 6-(2-(3-cyano-1H-pyrazol-1-yl)cyclobutyl)-4-oxo-1-(1-(6-(trifluoromethyl)pyridin-3-yl)ethyl)-4,5-dihydro-1H-pyrazolo[3,4-d]pyrimidine-3-carbonitrile], the Ki was 31 nM.
In the case of `CC(c1ccc(C(F)(F)F)nc1)n1nc(C#N)c2c(=O)[nH]c(C3CCC3n3ccc(C#N)n3)nc21` (single isomer, unassigned) [Example 29, 6-(2-(3-cyano-1H-pyrazol-1-yl)cyclobutyl)-4-oxo-1-(1-(6-(trifluoromethyl)pyridin-3-yl)ethyl)-4,5-dihydro-1H-pyrazolo[3,4-d]pyrimidine-3-carbonitrile], the Ki came out at 0.256 nM.
On to `C[C@@H](c1ccc(C(F)(F)F)nc1)n1nc(C#N)c2c(=O)[nH]c(C3CCC3n3cc(F)cn3)nc21` (single isomer, unassigned) [Example 34], for which the Ki was 5.9 nM.
Take `C[C@@H](c1ccc(C(F)(F)F)nc1)n1nc(C#N)c2c(=O)[nH]c(C3CCC3n3cc(F)cn3)nc21` (single isomer, unassigned) [Example 35]: the Ki came out at 0.402 nM.
As for `C[C@@H](c1ccc(C(F)(F)F)nc1)n1nc(C#N)c2c(=O)[nH]c(C3CCC3n3cccn3)nc21` (single isomer, unassigned) [Example 36], the Ki is 148 nM.
As for `C[C@@H](c1ccc(C(F)(F)F)nc1)n1nc(C#N)c2c(=O)[nH]c(C3CCC3n3cccn3)nc21` (single isomer, unassigned) [Example 37], the Ki came out at 124 nM.
On to `C[C@@H](c1ccc(C(F)(F)F)nc1)n1nc(C#N)c2c(=O)[nH]c(C3CCC3n3cc(C4CC4)cn3)nc21` (single isomer, unassigned) [Example 38], for which the Ki is 11 nM.
With `C[C@@H](c1ccc(C(F)(F)F)nc1)n1nc(C#N)c2c(=O)[nH]c(C3CCC3n3cc(C4CC4)cn3)nc21` (single isomer, unassigned) [Example 39], the Ki stood at 1.75 nM.

The record behind these values is US12247031B2, “Cyclobutyl pyrazolopyrimidine PDE9 inhibitors” (Merck Sharp & Dohme LLC, priority 2018, dated 2025).
